The data set is described as follows: GSH reactivity assay (HPLC, DTNB quench). It is filed as physicochemical. The following applies: 500 µM compound, 5 mM GSH, 37 °C; for Reaction with GSH (hetero-Michael addition), qualitative: PBS pH 7.4 with EDTA:DMSO 1:1; for Reversibility of GSH adducts (retro-Michael), qualitative: longer incubation. On the procedure:
In order to determine if these chalcones could react with thiol groups through a hetero-Michael addition reaction, a few selected compounds (9, 10, 13 and 18) were incubated with glutathione (GSH). After different incubation times, the reactions were quenched by adding 5,5′-dithiobis(2-nitrobenzoic acid) (DTNB, Ellman´s reagent) (1:1 ratio with respect to the initial concentration of GSH). The course of the reaction was followed by HPLC, adapting reported procedures. […] Thus, although this assay is only qualitative, the tendency observed among these chalcones nicely fits the reactivity described for α-X-2´3,4,4´-tetramethylchalcones.
A 500 µM sample of the tested compound was incubated with 5 mM reduced L-glutathione for 24 h at 37 °C with a final volume of 200 μL. As a solvent system, 20 mM PBS buffer pH 7.4 with 2 mM EDTA:DMSO (1:1) was used. To perform the assay, stock solutions of 20 mM of the chalcones (9, 10, 13 and 18) and 15 mM of reduced L-glutathione were freshly prepared for every experiment and then diluted properly to give the final electrophile:nucleophile ratio (1:10). A 5 mM solution of 5,5′-dithiobis(2-nitrobenzoic acid) (DTNB) was prepared in the same solvent system to quench the reaction. After different time points (10 min, 1 h, 4 h and 24 h), an aliquot of 20 μL of the incubation mixture was quenched by adding 20 μL of the DTNB stock solution, mixed thoroughly, and then analyzed by HPLC. HPLC analysis was performed in Agilent 1120 compact LC, column ACE 5 C18-300 (15 cm × 4.6 mm); UV detection was performed at λ = 254 nm. Solvents used were acetonitrile for bottle A and H2O (containing 0.05% TFA) for bottle B, and the flow rate was 1mL/min. The gradients used were: (A) incubations with chalcone 9: from 10% to 80% of solvent A in 10 min; (B) incubations with chalcones 10 and 18: from 10% to 100% of solvent A in 10 min. The new peaks were analysed by LC-MS. As controls, a 500 μM solution of the α,β-unsaturated compound was also analysed, and a 5 mM reduced L-glutathione solution was quenched by adding DNTB at the same time points. In general, after 6 h of incubation, no GSH was detected.

As for `COc1cc(OC)cc(C(=O)/C=C/c2cncnc2)c1` [Compound 10, (E)-1-(3′,5′-Dimethoxyphenyl)-3-(pyrimidin-5′’-yl)prop-2-en-1-one], the “Reaction with GSH (hetero-Michael addition), qualitative” value is given as “quickly reacted with GSH” and the “Reversibility of GSH adducts (retro-Michael), qualitative” value was “underwent a retro-Michael addition reaction”.
For `O=C(/C=C/c1cncnc1)c1ccc2ccccc2c1` [Compound 9, (E)-1-(Naphthalen-2-yl)-3-(pyrimidin-5-yl)prop-2-en-1-one], the “Reaction with GSH (hetero-Michael addition), qualitative” value was “quickly reacted with GSH” and the “Reversibility of GSH adducts (retro-Michael), qualitative” value is “underwent a retro-Michael addition reaction”.
